Laboratory results as given in patent US7968080B2, “Somatostatin analogs with inhibitory activity to growth hormone release” (The Regents of the University of California, priority 2003, dated 2011).
Like-named read-outs stand apart in the source and are kept apart here.

Tests used:
SST3 = SST3 (Homo sapiens, UniProt P32745); assay: Binding affinities of SS-14, Sandostatin and RC-121 (Table 1); settings: read-out: Ki ± SEM, SST3
SST4 = SST4 (Homo sapiens, UniProt P31391); assay: as above; settings: read-out: Ki ± SEM, SST4
Chain of SST4 (P31391 whole entry, species assumed): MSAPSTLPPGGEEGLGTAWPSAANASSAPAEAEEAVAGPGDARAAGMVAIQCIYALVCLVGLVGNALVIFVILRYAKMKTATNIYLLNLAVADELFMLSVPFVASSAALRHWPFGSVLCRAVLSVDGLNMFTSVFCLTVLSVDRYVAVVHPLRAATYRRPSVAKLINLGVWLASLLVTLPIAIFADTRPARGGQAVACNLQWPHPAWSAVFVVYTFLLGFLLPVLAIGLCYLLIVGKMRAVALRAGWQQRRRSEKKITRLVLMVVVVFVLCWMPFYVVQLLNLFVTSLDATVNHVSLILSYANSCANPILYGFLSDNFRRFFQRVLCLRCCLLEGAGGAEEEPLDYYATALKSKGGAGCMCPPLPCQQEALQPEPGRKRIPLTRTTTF

SST1 = SST1 (Homo sapiens, UniProt P30872); assay: as above; settings: read-out: Ki ± SEM, SST1
Chain of SST1 (P30872 whole entry, species assumed): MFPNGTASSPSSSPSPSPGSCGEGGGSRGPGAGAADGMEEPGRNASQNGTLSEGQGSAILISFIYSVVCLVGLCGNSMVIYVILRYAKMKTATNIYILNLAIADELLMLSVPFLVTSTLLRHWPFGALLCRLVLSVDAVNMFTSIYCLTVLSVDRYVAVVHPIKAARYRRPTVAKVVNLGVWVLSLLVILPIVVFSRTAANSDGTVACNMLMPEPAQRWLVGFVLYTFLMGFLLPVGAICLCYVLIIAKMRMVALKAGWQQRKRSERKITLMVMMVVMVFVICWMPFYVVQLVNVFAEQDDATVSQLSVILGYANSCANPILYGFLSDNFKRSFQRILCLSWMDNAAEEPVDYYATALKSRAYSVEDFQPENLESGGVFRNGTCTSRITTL

hsst2 = hsst2 (Homo sapiens, UniProt P30874); assay: Binding of beta-MeTrp analogs of L-363,301 to hsst2
Chain of hsst2 (P30874 whole entry): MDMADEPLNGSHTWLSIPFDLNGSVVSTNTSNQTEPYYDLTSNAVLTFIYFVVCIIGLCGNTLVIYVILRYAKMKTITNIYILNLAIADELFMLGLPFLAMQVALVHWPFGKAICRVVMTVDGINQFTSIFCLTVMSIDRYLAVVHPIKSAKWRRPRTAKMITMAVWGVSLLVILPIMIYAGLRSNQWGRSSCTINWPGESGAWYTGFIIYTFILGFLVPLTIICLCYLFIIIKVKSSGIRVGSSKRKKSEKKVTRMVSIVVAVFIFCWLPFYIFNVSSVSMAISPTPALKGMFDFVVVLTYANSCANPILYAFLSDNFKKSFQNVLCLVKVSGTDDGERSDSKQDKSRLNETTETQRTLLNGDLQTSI

[1] = system: somatostatin receptors hsst1-5; assay: Binding potencies and selectivities at somatostatin receptors hsst1-5; design: species or system human
SST 1-5 = settings: background statement; cited from earlier work

Chain of SST3 (P32745 whole entry, species assumed): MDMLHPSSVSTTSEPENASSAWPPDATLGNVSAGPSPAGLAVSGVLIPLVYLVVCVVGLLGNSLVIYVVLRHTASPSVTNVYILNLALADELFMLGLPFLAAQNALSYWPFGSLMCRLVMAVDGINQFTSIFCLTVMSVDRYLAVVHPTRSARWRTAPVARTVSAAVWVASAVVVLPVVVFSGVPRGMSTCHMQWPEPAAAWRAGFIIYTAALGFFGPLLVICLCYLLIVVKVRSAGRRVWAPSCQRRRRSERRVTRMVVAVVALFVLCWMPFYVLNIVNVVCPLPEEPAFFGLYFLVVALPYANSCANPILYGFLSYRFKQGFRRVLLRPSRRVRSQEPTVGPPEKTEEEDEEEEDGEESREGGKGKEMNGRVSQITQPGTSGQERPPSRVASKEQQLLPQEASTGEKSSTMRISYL

| binding to receptor hsst2 (hsst2) | Molecule | potency relative to parent peptide L-363,301 [1] | selectivity among hsst1-5 [1] | interaction with SS receptor subtypes (background) (SST 1-5) | other results |
| --- | --- | --- | --- | --- | --- |
| – | CC(C)[C@@H]1NC(=O)[C@H](CCCCN)NC(=O)[C@@H](Cc2c[nH]c3ccccc23)NC(=O)[C@H](Cc2ccc(O)cc2)NC(=O)[C@@H](NC(=O)[C@H](N)Cc2ccccc2)CSSC[C@@H](C(=O)N[C@H](C(N)=O)[C@@H](C)O)NC1=O [RC-121, D-Phe-c[Cys-Tyr-D-Trp-Lys-Val-Cys]-Thr-NH2] | – | – | – | Ki (SST3): > 1000 nM; Ki (SST4): > 1000 nM; Ki (SST1): > 1000 nM |
| nanomolar range | c[Pro-Phe-(2R,3R)-β-MeTrp-Lys-Thr-Phe] | much less active | highly selective for hsst2 | – | – |
| – | SS-28: N-terminally extended version of SS-14 that has an additional 14 amino acid residues | – | – | high affinity | – |
| nanomolar range | c[Pro-Phe-(2R,3S)-β-MeTrp-Lys-Thr-Phe] | more potent than the parent peptide | highly selective for hsst2 | – | binding to receptor hsst2 (hsst2; listed as (2R,3S)-β-MeTrp diastereomer): bind very well to hsst2 |
| – | C[C@@H](O)[C@@H]1NC(=O)[C@H](CCCCN)NC(=O)[C@@H](Cc2c[nH]c3ccccc23)NC(=O)[C@H](Cc2ccccc2)NC(=O)[C@@H](NC(=O)[C@H](N)Cc2ccccc2)CSSC[C@@H](C(=O)N[C@H](CO)[C@@H](C)O)NC1=O [Sandostatin, D-Phe-c[Cys-Phe-D-Trp-Lys-Thr-Cys]-Thr-ol] | – | – | interact significantly with three of the receptor subtypes, i.e. SST2, SST3 and SST5 | – |
